Assay results as given in ChEMBL document CHEMBL1629501, “Regiospecific synthesis and biological evaluation of spirooxindolopyrrolizidines via [3+2] cycloaddition of azomethine ylide” (2010).
In brackets after ≈: the same amount, converted by molar mass. Activity calls are given as the source filed them. The rule behind the calls is not given here.

Assays:
Staphylococcus aureus = assay: Antibacterial activity against Staphylococcus aureus ATCC 25825 after 24 hrs by twofold serial dilution method; assay type: functional; settings: ATCC 25825, 24 h
Bacillus subtilis = assay: Antibacterial activity against Bacillus subtilis ATCC 451 after 24 hrs by twofold serial dilution method; assay type: functional; settings: ATCC 451, 24 h
Salmonella typhi = assay: Antibacterial activity against Salmonella typhi ATCC 24915 after 24 hrs by twofold serial dilution method; assay type: functional, Salmonella enterica subsp. enterica serovar Typhi; settings: Salmonella enterica, ATCC 24915, 24 h
Escherichia coli = assay: Antibacterial activity against Escherichia coli ATCC 25835 after 24 hrs by twofold serial dilution method; assay type: functional; settings: ATCC 25835, 24 h
Klebsiella pneumoniae [1] = assay: Antibacterial activity against Klebsiella pneumoniae ATCC 15490 after 24 hrs by twofold serial dilution method; assay type: functional; settings: ATCC 15490, 24 h
Cryptococcus neoformans = assay: Antifungal activity against Cryptococcus neoformans ATCC 3312 after 72 to 96 hrs by twofold serial dilution method; assay type: functional
Candida albicans = assay: Antifungal activity against Candida albicans ATCC 3122 by twofold serial dilution method; assay type: functional
Rhizopus = assay: Antifungal activity against Rhizopus sp. ATCC 2915 after 72 to 96 hrs by twofold serial dilution method; assay type: functional
Aspergillus niger = assay: Antifungal activity against Aspergillus niger ATCC 598 after 72 to 96 hrs by twofold serial dilution method; assay type: functional
Aspergillus flavus = assay: Antifungal activity against Aspergillus flavus ATCC 485 after 72 to 96 hrs by twofold serial dilution method; assay type: functional
Klebsiella pneumoniae [2] = assay: Antibacterial activity against Klebsiella pneumoniae ATCC 15490 at 200 ug/ml after 24 hrs by twofold serial dilution method; assay type: functional, organism-based

Structure (SMILES) | MIC (Staphylococcus aureus) [µg/mL] | MIC (Bacillus subtilis) [µg/mL] | MIC (Salmonella typhi) [µg/mL] | MIC (Escherichia coli) [µg/mL] | MIC (Klebsiella pneumoniae [1]) [µg/mL] | MIC (Cryptococcus neoformans) [µg/mL] | MIC (Candida albicans) [µg/mL] | MIC (Rhizopus) [µg/mL] | MIC (Aspergillus niger) [µg/mL] | MIC (Aspergillus flavus) [µg/mL] | Activity (Klebsiella pneumoniae [2])
O=C(c1cccs1)[C@H]1[C@H](c2cccc(Br)c2)C2CCCN2[C@]12C(=O)Nc1ccccc12 (stereo partly drawn) | 25 (≈ 50.7 µM) | 25 (≈ 50.7 µM) | 100 (≈ 203 µM) | 50 (≈ 101 µM) | 100 (≈ 203 µM) | 25 (≈ 50.7 µM) | 50 (≈ 101 µM) | 12.5 (≈ 25.3 µM) | 100 (≈ 203 µM) | 200 (≈ 405 µM) | –
Cc1ccc([C@@H]2C3CCCN3[C@]3(C(=O)Nc4ccccc43)[C@H]2C(=O)c2cccs2)cc1 (stereo partly drawn) | 50 (≈ 117 µM) | 25 (≈ 58.3 µM) | 6.25 (≈ 14.6 µM) | 50 (≈ 117 µM) | 100 (≈ 233 µM) | 100 (≈ 233 µM) | 100 (≈ 233 µM) | 100 (≈ 233 µM) | – | 25 (≈ 58.3 µM) | –
O=C(c1cccs1)[C@H]1[C@H](c2ccc(F)cc2)C2CCCN2[C@]12C(=O)Nc1ccccc12 (stereo partly drawn) | 6.25 (≈ 14.5 µM) | 25 (≈ 57.8 µM) | 6.25 (≈ 14.5 µM) | 50 (≈ 116 µM) | – | 25 (≈ 57.8 µM) | 6.25 (≈ 14.5 µM) | 6.25 (≈ 14.5 µM) | 200 (≈ 462 µM) | 100 (≈ 231 µM) | inactive
O=C(c1cccs1)[C@H]1[C@H](c2ccc([N+](=O)[O-])cc2)C2CCCN2[C@]12C(=O)Nc1ccccc12 (stereo partly drawn) | 100 (≈ 218 µM) | 50 (≈ 109 µM) | 100 (≈ 218 µM) | 200 (≈ 435 µM) | 50 (≈ 109 µM) | 100 (≈ 218 µM) | 200 (≈ 435 µM) | 50 (≈ 109 µM) | 100 (≈ 218 µM) | 200 (≈ 435 µM) | –
CN(C)c1ccc([C@@H]2C3CCCN3[C@]3(C(=O)Nc4ccccc43)[C@H]2C(=O)c2cccs2)cc1 (stereo partly drawn) | 200 (≈ 437 µM) | 50 (≈ 109 µM) | 100 (≈ 219 µM) | 100 (≈ 219 µM) | 50 (≈ 109 µM) | 50 (≈ 109 µM) | 100 (≈ 219 µM) | 50 (≈ 109 µM) | 100 (≈ 219 µM) | 200 (≈ 437 µM) | –
O=C(c1cccs1)[C@H]1[C@H](c2ccccc2)C2CCCN2[C@]12C(=O)Nc1ccccc12 (stereo partly drawn) | 50 (≈ 121 µM) | 100 (≈ 241 µM) | 100 (≈ 241 µM) | 100 (≈ 241 µM) | 200 (≈ 482 µM) | 50 (≈ 121 µM) | 100 (≈ 241 µM) | 200 (≈ 482 µM) | – | 200 (≈ 482 µM) | –
C[C@@H]1[C@H](O)[C@@H](C)/C=C/C=C/C=C/C=C/C=C/C=C/C=C/[C@H](O[C@@H]2O[C@H](C)[C@@H](O)[C@H](N)[C@@H]2O)C[C@@H]2O[C@](O)(C[C@@H](O)C[C@@H](O)[C@H](O)CC[C@@H](O)C[C@@H](O)CC(=O)O[C@H]1C)C[C@H](O)[C@H]2C(=O)O [AMPHOTERICIN B] | – | – | – | – | – | 25 (≈ 27.1 µM) | 25 (≈ 27.1 µM) | 25 (≈ 27.1 µM) | 50 (≈ 54.1 µM) | 50 (≈ 54.1 µM) | –
O=C(c1cccs1)[C@H]1[C@H](c2ccc(Cl)cc2)C2CCCN2[C@]12C(=O)Nc1ccccc12 (stereo partly drawn) | 6.25 (≈ 13.9 µM) | 12.5 (≈ 27.8 µM) | 6.25 (≈ 13.9 µM) | 25 (≈ 55.7 µM) | – | 12.5 (≈ 27.8 µM) | 25 (≈ 55.7 µM) | 6.25 (≈ 13.9 µM) | 25 (≈ 55.7 µM) | 100 (≈ 223 µM) | inactive
COc1ccc([C@@H]2C3CCCN3[C@]3(C(=O)Nc4ccccc43)[C@H]2C(=O)c2cccs2)cc1 (stereo partly drawn) | 6.25 (≈ 14.1 µM) | 50 (≈ 112 µM) | 100 (≈ 225 µM) | 100 (≈ 225 µM) | 25 (≈ 56.2 µM) | 50 (≈ 112 µM) | 100 (≈ 225 µM) | 50 (≈ 112 µM) | 100 (≈ 225 µM) | 25 (≈ 56.2 µM) | –
CN[C@@H]1[C@H](O[C@H]2[C@H](O[C@H]3[C@H](O)[C@@H](O)[C@H](N=C(N)N)[C@@H](O)[C@@H]3N=C(N)N)O[C@@H](C)[C@]2(O)C=O)O[C@@H](CO)[C@H](O)[C@H]1O [STREPTOMYCIN] | 50 (≈ 86 µM) | 12.5 (≈ 21.5 µM) | 50 (≈ 86 µM) | 12.5 (≈ 21.5 µM) | 25 (≈ 43 µM) | – | – | – | – | – | –
